Measurements reported in patent publication US9271978B2 (Zenith Epigenetics Corp., priority 2012, dated 2016).

Columns and labels:
[1] = target: T1, Brd4 bromodomain 1 (BRD4(1)) (Homo sapiens, UniProt O60885); assay: Inhibition of tetra-acetylated histone H4 binding to Brd4 bromodomain 1 (TR-FRET); parameters: key: Active: Compounds with an IC50 value less than 30 μM were deemed to be active.; Not Active: Compounds with an IC50 value less than 30 μM were deemed to be active; conditions: tetra-acetylated histone H4 peptide, active = IC50 <30 μM
T1 construct: Illustrative results with the first bromodomain of Brd4; made in house; host or cells: E. coli BL21 (DE3)
In short: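 N-terminally His-tagged bromodomains (200 nM), expressed in E. coli, were incubated with biotinylated tetra-acetylated histone H4 peptide (25-50 nM), Eu-cryptate streptavidin and XL665 anti-His antibody in HEPES pH 7.4 buffer with KF, 0.2% DMSO, 2 h at room temperature. Inhibition read as decreased 665/620 nm TR-FRET; IC50 from dose-response curves.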

[2] = tested on: hIL-6 mRNA; assay: Inhibition of hIL-6 mRNA transcription in U937 cells; assay type: cell-based, human; parameters: key: Active: Compounds with an IC50 value less than 30 μM were deemed to be active.; Not Active: Compounds with an IC50 value less than 30 μM were deemed to be active; conditions: LPS stimulation, active = IC50 <30 μM
In short: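 U937 cells differentiated 3 days with 60 ng/mL PMA, pretreated 1 h with compound, then stimulated with 1 ug/mL E. coli LPS for 3 h at 37° C. hIL-6 mRNA quantified by one-step qRT-PCR, Ct normalized to internal control, expressed as fold induction relative to control.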

[3] = tested on: human AML MV-4-11 (CRL-9591) cells; assay: Inhibition of cell proliferation in MV4-11 cells; assay type: cell-based; parameters: key: Active: Compounds with an IC50 value less than 30 μM were deemed to be active.; Not Active: Compounds with an IC50 value less than 30 μM were deemed to be active; conditions: human AML MV-4-11 cells, 72 h; active = IC50 <30 μM
In short: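 Exponentially growing MV-4-11 cells (5×10^4/well) were treated immediately with two-fold dilutions of compound from 30 μM to 0.2 μM, in triplicate, for 72 h at 37° C, 5% CO2. Viability was measured by MTS absorbance at 490 nm after 3–4 h. Proliferation relative to DMSO after blank correction gave IC50.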

[4] = tested on: ApoA-I mRNA; assay: Up-regulation of hApoA-1 mRNA transcription in Huh7 cells; assay type: cell-based, human; parameters: key: Active: Compounds with an EC170 value less than 30 μM were deemed to be active; conditions: 48 h treatment, ApoA-I mRNA by real-time PCR, Active = EC170 less than 30 μM
Experimental: In this example, ApoA-I mRNA in tissue culture cells was quantitated to measure the transcriptional up-regulation of ApoA-I when treated with a compound of the present disclosure.
Huh7 cells (2.5×10^5 per well) were plated in a 96-well plate using 100 μL DMEM per well, (Gibco DMEM supplemented with penicillin/streptomycin and 10% FBS), 24 h before the addition of the compound of interest. After 48 h treatment, the spent media was removed from the Huh-7 cells and placed on ice (for immediate use) or at −80° C. (for future use) with the “LDH cytotoxicity assay Kit II” from Abcam. The cells remaining in the plate were rinsed with 100 μL PBS.
Then 85 μL of cell lysis solution was added to each well and incubated for 5-10 min at room temperature, to allow for complete cell lysis and detachment. mRNA was then prepared using the “mRNA Catcher PLUS plate” from Life Technologies, according to the protocol supplied. After the last wash, as much wash buffer as possible was aspirated without allowing the wells to dry. Elution Buffer (E3, 80 μL) was then added to each well. mRNA was then eluted by incubating the mRNA Catcher PLUS plate with Elution Buffer for 5 min at 68° C., and then 1 min at 4° C. Catcher plates with mRNA eluted were kept on ice for use or stored at −80° C.
The eluted mRNA isolated was then used in a one-step real-time PCR reaction, using components of the Ultra Sense Kit together with Life Technologies primer-probe mixes. Real-time PCR data was analyzed, using the Ct values, to determine the fold induction of each unknown sample, relative to the control (that is, relative to the control for each independent DMSO concentration).
Compounds with an EC170 value less than 30 μM were deemed to be active.

[5] = tested on: c-myc; assay: Inhibition of c-myc expression in MV4-11 cells (mRNA, real-time PCR); assay type: cell-based; parameters: key: Active: Compounds with an IC50 value less than 30 μM were deemed to be active.; Not Active: Compounds with an IC50 value less than 30 μM were deemed to be active; conditions: Human AML MV4-11 cells, 3 h incubation
In short: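 MV4-11 cells (2.5×10^4) treated with compound or 0.1% DMSO for 3 h at 37 °C. c-myc mRNA measured by RT real-time PCR duplexed with cyclophilin. IC50 from dose–response curve.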

SMILES: Cc1noc(C)c1-c1cc(O)c(=O)n(Cc2ccccc2)c1 [Example 209, 1-benzyl-5-(3,5-dimethylisoxazol-4-yl)-3-hydroxypyridin-2(1H)-one]
- FRET activity (IC50 <30 μM) BRD4(1) [1]: Active
- IL-6 activity (IC50 <30 μM) [2]: Active
- Cell Proliferation activity (IC50 <30 μM) [3]: Active
- ApoA-1 activity (EC170 <30 μM) [4]: Active
- c-myc activity (IC50 <30 μM) [5]: Active

SMILES: Cc1noc(C)c1-c1cc(N)c(=O)n(Cc2ccc(F)c(F)c2)c1 [Example 211, 3-amino-1-(3,4-difluorobenzyl)-5-(3,5-dimethylisoxazol-4-yl)pyridin-2(1H)-one]
- FRET activity (IC50 <30 μM) BRD4(1) [1]: Active
- IL-6 activity (IC50 <30 μM) [2]: Active
- Cell Proliferation activity (IC50 <30 μM) [3]: Active
- ApoA-1 activity (EC170 <30 μM) [4]: Active
- c-myc activity (IC50 <30 μM) [5]: Active

SMILES: Cc1noc(C)c1-c1cc(NC(C)C)c(=O)n(Cc2ccccc2)c1 [Example 192, 1-benzyl-5-(3,5-dimethylisoxazol-4-yl)-3-(isopropylamino)pyridin-2(1H)-one]
- FRET activity (IC50 <30 μM) BRD4(1) [1]: Active
- IL-6 activity (IC50 <30 μM) [2]: Active
- Cell Proliferation activity (IC50 <30 μM) [3]: Active
- ApoA-1 activity (EC170 <30 μM) [4]: Active
- c-myc activity (IC50 <30 μM) [5]: Active

SMILES: Cc1noc(C)c1-c1cc(Nc2cncc(F)c2)c(=O)n(Cc2ccccc2)c1 [Example 223, 1-benzyl-5-(3,5-dimethylisoxazol-4-yl)-3-((5-fluoropyridin-3-yl)amino)pyridin-2(1H)-one]
- FRET activity (IC50 <30 μM) BRD4(1) [1]: Active
- IL-6 activity (IC50 <30 μM) [2]: Active
- Cell Proliferation activity (IC50 <30 μM) [3]: Active
- ApoA-1 activity (EC170 <30 μM) [4]: Active
- c-myc activity (IC50 <30 μM) [5]: Active

SMILES: Cc1noc(C)c1-c1cc(-c2cccc(C(N)=O)c2)c(=O)n(Cc2ccccc2)c1 [Example 185, 3-(1-benzyl-5-(3,5-dimethylisoxazol-4-yl)-2-oxo-1,2-dihydropyridin-3-yl)benzamide]
- FRET activity (IC50 <30 μM) BRD4(1) [1]: Active
- IL-6 activity (IC50 <30 μM) [2]: Not Active
- Cell Proliferation activity (IC50 <30 μM) [3]: Active
- ApoA-1 activity (EC170 <30 μM) [4]: Active
- c-myc activity (IC50 <30 μM) [5]: Active

SMILES: COc1cc(-c2c(C)noc2C)cn(Cc2ccccc2)c1=O [Example 210, 1-benzyl-5-(3,5-dimethylisoxazol-4-yl)-3-methoxypyridin-2(1H)-one]
- FRET activity (IC50 <30 μM) BRD4(1) [1]: Active
- IL-6 activity (IC50 <30 μM) [2]: Active
- Cell Proliferation activity (IC50 <30 μM) [3]: Active
- ApoA-1 activity (EC170 <30 μM) [4]: Active
- c-myc activity (IC50 <30 μM) [5]: Active

SMILES: Cc1noc(C)c1-c1cc(N)c(=O)n(Cc2nccs2)c1 [Example 215, 3-amino-5-(3,5-dimethylisoxazol-4-yl)-1-(thiazol-2-ylmethyl)pyridin-2(1H)-one]
- FRET activity (IC50 <30 μM) BRD4(1) [1]: Active
- IL-6 activity (IC50 <30 μM) [2]: Active
- Cell Proliferation activity (IC50 <30 μM) [3]: Active
- ApoA-1 activity (EC170 <30 μM) [4]: Active
- c-myc activity (IC50 <30 μM) [5]: Active

SMILES: Cc1noc(C)c1-c1cc(Nc2cccnc2)c(=O)n(Cc2ccccc2)c1 [Example 194, 1-benzyl-5-(3,5-dimethylisoxazol-4-yl)-3-(pyridin-3-ylamino)pyridin-2(1H)-one]
- FRET activity (IC50 <30 μM) BRD4(1) [1]: Active
- IL-6 activity (IC50 <30 μM) [2]: Active
- Cell Proliferation activity (IC50 <30 μM) [3]: Active
- ApoA-1 activity (EC170 <30 μM) [4]: Active
- c-myc activity (IC50 <30 μM) [5]: Active

SMILES: Cc1noc(C)c1-c1cc(N)c(=O)n(Cc2ccc(C#N)cc2)c1 [Example 216, 4-((3-amino-5-(3,5-dimethylisoxazol-4-yl)-2-oxopyridin-1(2H)-yl)methyl)benzonitrile]
- FRET activity (IC50 <30 μM) BRD4(1) [1]: Active
- IL-6 activity (IC50 <30 μM) [2]: Active
- Cell Proliferation activity (IC50 <30 μM) [3]: Active
- ApoA-1 activity (EC170 <30 μM) [4]: Active
- c-myc activity (IC50 <30 μM) [5]: Active

SMILES: COc1ccc(Cn2cc(-c3c(C)noc3C)cc(N)c2=O)cc1 [Example 220, 3-amino-5-(3,5-dimethylisoxazol-4-yl)-1-(4-methoxybenzyl)pyridin-2(1H)-one]
- FRET activity (IC50 <30 μM) BRD4(1) [1]: Active
- IL-6 activity (IC50 <30 μM) [2]: Active
- Cell Proliferation activity (IC50 <30 μM) [3]: Active
- ApoA-1 activity (EC170 <30 μM) [4]: Active
- c-myc activity (IC50 <30 μM) [5]: Active

SMILES: Cc1noc(C)c1-c1cc(N)c(=O)n(Cc2ccc(C(F)(F)F)cc2)c1 [Example 228, 3-amino-5-(3,5-dimethylisoxazol-4-yl)-1-(4-(trifluoromethyl)benzyl)pyridin-2(1H)-one]
- FRET activity (IC50 <30 μM) BRD4(1) [1]: Active
- IL-6 activity (IC50 <30 μM) [2]: Active
- Cell Proliferation activity (IC50 <30 μM) [3]: Active
- ApoA-1 activity (EC170 <30 μM) [4]: Active
- c-myc activity (IC50 <30 μM) [5]: Active

SMILES: Cc1onc(CO)c1-c1cc(N)c(=O)n(Cc2ccc(Cl)cc2)c1 [Example 205, 3-Amino-1-(4-chlorobenzyl)-5-(3-(hydroxymethyl)-5-methylisoxazol-4-yl)pyridin-2(1H)-one]
- FRET activity (IC50 <30 μM) BRD4(1) [1]: Active
- IL-6 activity (IC50 <30 μM) [2]: Active
- Cell Proliferation activity (IC50 <30 μM) [3]: Active
- ApoA-1 activity (EC170 <30 μM) [4]: Active
- c-myc activity (IC50 <30 μM) [5]: Active

SMILES: Cc1noc(C)c1-c1cc(N)c(=O)n(Cc2ccc(Cl)cc2F)c1 [Example 206, 3-amino-1-(4-chloro-2-fluorobenzyl)-5-(3,5-dimethylisoxazol-4-yl)pyridin-2(1H)-one]
- FRET activity (IC50 <30 μM) BRD4(1) [1]: Active
- IL-6 activity (IC50 <30 μM) [2]: Active
- Cell Proliferation activity (IC50 <30 μM) [3]: Active
- ApoA-1 activity (EC170 <30 μM) [4]: Active
- c-myc activity (IC50 <30 μM) [5]: Active

SMILES: Cc1noc(C)c1-c1cc(N)c(=O)n(Cc2ccc(OC(F)(F)F)cc2)c1 [Example 226, 3-amino-5-(3,5-dimethylisoxazol-4-yl)-1-(4-(trifluoromethoxy)benzyl)pyridin-2(1H)-one]
- FRET activity (IC50 <30 μM) BRD4(1) [1]: Active
- IL-6 activity (IC50 <30 μM) [2]: Active
- Cell Proliferation activity (IC50 <30 μM) [3]: Active
- ApoA-1 activity (EC170 <30 μM) [4]: Active
- c-myc activity (IC50 <30 μM) [5]: Active

SMILES: Cc1noc(C)c1-c1cc(N)c(=O)n(Cc2ccc(F)cc2Cl)c1 [Example 207, 3-amino-1-(2-chloro-4-fluorobenzyl)-5-(3,5-dimethylisoxazol-4-yl)pyridin-2(1H)-one]
- FRET activity (IC50 <30 μM) BRD4(1) [1]: Active
- IL-6 activity (IC50 <30 μM) [2]: Active
- Cell Proliferation activity (IC50 <30 μM) [3]: Active
- ApoA-1 activity (EC170 <30 μM) [4]: Active
- c-myc activity (IC50 <30 μM) [5]: Active

SMILES: Cc1noc(C)c1-c1cc(N)c(=O)n(Cc2ccccc2Cl)c1 [Example 227, 3-amino-1-(2-chlorobenzyl)-5-(3,5-dimethylisoxazol-4-yl)pyridin-2(1H)-one]
- FRET activity (IC50 <30 μM) BRD4(1) [1]: Active
- IL-6 activity (IC50 <30 μM) [2]: Active
- Cell Proliferation activity (IC50 <30 μM) [3]: Active
- ApoA-1 activity (EC170 <30 μM) [4]: Active
- c-myc activity (IC50 <30 μM) [5]: Active

SMILES: Cc1onc(CO)c1-c1cc(N)c(=O)n(Cc2ccccc2)c1 [Example 189, 3-Amino-1-benzyl-5-(3-(hydroxymethyl)-5-methylisoxazol-4-yl)pyridin-2(1H)-one]
- FRET activity (IC50 <30 μM) BRD4(1) [1]: Active
- IL-6 activity (IC50 <30 μM) [2]: Active
- Cell Proliferation activity (IC50 <30 μM) [3]: Active
- ApoA-1 activity (EC170 <30 μM) [4]: Active
- c-myc activity (IC50 <30 μM) [5]: Active
